Results published in patent publication US8329644B2, “Lantibiotic-based compounds having antimicrobial activity” (Novacta Biosystems Limited, priority 2007, dated 2012).
In brackets after ≈: the same amount, converted by molar mass.

Experiments:
S. constellatus = experiment: MIC susceptibility testing, S. constellatus; assay type: cell-based; details: S. constellatus GRL05065; Viridans streptococci; Table 3
Experimental: (§1) Susceptibility testing for all aerobic organisms with the exception of Streptococcus pneumoniae was performed by two-fold serial antibiotic dilutions in Mueller-Hinton Broth supplemented with 50 μg/ml Ca^2+ unless otherwise noted. Susceptibility testing for S. pneumoniae was performed by two-fold serial antibiotic dilutions in Brain-Heart-Infusion Broth supplemented with 50 μg/ml Ca^2+ unless otherwise noted. Actively growing broth cultures were diluted to contain […] by adjusting to an OD600 of 0.2-0.3. They were then diluted a further 1:100 in fresh sterile broth. The assays were performed in duplicate in sterile 96-well microtitre plates in a total volume of 200 μl (160 μl broth, 20 μl antimicrobial agent, 20 μl inoculum) in a concentration range from 64 μg/ml to 0.06 μg/ml. […] Clinical isolates of Clostridium difficile were tested in Wilkins-Chalgren Anaerobe Agar under anaerobic conditions. In all cases, vancomycin was used as a reference antibiotic

Clostridium difficile = experiment: MIC, Clostridium difficile in Wilkins-Chalgren Anaerobe Agar; assay type: cell-based; details: Table 4
Experimental: as §1

[1] = system: Bifidobacterium adolescentis; experiment: MIC against intestinal flora organisms, Bifidobacterium adolescentis; assay type: cell-based; details: Bifidobacterium adolescentis NCTC 11814; Table 5
Bacteroides fragilis = experiment: MIC against intestinal flora organisms, Bacteroides fragilis; assay type: cell-based; details: Bacteroides fragilis NCTC 9343; Table 5
[2] = system: Bacteroides thetaiotaomicron; experiment: MIC against intestinal flora organisms, Bacteroides thetaiotaomicron; assay type: cell-based; details: Bacteroides thetaiotaomicron NCTC 10582; Table 5
[3] = Stability in simulated gastric fluid (SGF); assay type: in vitro ADME; details: 37° C., analytical HPLC
Experimental: Nisin, mersacidin, compound I and compound III were tested for their susceptibility towards enzymatic digestion in the stomach. Nisin, mersacidin and compound III were tested for their susceptibility towards enzymatic digestion in the intestine. The SGF and SIF were based on the standard USP solutions for simulated gastric and simulated intestinal fluids and their activity confirmed against Bovine Serum Albumin (Hilger et al, Clin. Exp. Immunol. 2001, 123, 387-94). The compounds were incubated in SGF or SIF at 37° C. and their concentrations quantified by analytical HPLC (UV detection at 210 nm). The potential degradation of each compound was also monitored qualitatively by measuring in vitro antibacterial activity against Micrococcus luteus.

CCC(C)[C@@H]1NC(=O)[C@H](C(C)C)NC(=O)[C@H]2NC(=O)CNC(=O)[C@@H]3CS[C@@H](C)[C@@H](NC(=O)[C@H]4CSC[C@H](N)C(=O)N[C@@H](CO)C(=O)NCC(=O)N[C@@H](Cc5c[nH]c6ccccc56)C(=O)N[C@@H](C(C)C)C(=O)N4)C(=O)N[C@@H](CC(C)C)C(=O)N[C@@H](C(=O)N[C@@H](C(C)CC)C(=O)N[C@@H](CCC(=O)O)C(=O)N3)[C@H](C)SC[C@H](NC1=O)C(=O)N[C@@H](C)C(=O)N[C@H](C(=O)NCCO)C[S+]([O-])[C@H]2C (some centres unmarked) [Compound III, Actagardine N-[2-ethanolamine]monocarboxamide]
MIC (S. constellatus): >32 µg/mL
MIC (Clostridium difficile; C. difficile 027C): 1 µg/mL (≈ 0.517 µM)
MIC (Clostridium difficile; C. difficile 027SM): 1 µg/mL (≈ 0.517 µM)
MIC (Clostridium difficile; C. difficile 19126): 2 µg/mL (≈ 1.03 µM)
MIC (Clostridium difficile; C. difficile 37779): 2 µg/mL (≈ 1.03 µM)
MIC (Clostridium difficile; C. difficile B32): 2 µg/mL (≈ 1.03 µM)
MIC (Clostridium difficile; C. difficile E4): 1 µg/mL (≈ 0.517 µM)
MIC (Clostridium difficile; C. difficile E16): 2 µg/mL (≈ 1.03 µM)
MIC (Clostridium difficile; C. difficile E101): 2 µg/mL (≈ 1.03 µM)
MIC (Clostridium difficile; C. difficile P24): 2 µg/mL (≈ 1.03 µM)
MIC (Clostridium difficile; C. difficile P49): 1 µg/mL (≈ 0.517 µM)
MIC (Clostridium difficile; C. difficile P59): 1 µg/mL (≈ 0.517 µM)
MIC (Clostridium difficile; C. difficile P62): 1 µg/mL (≈ 0.517 µM)
Minimal Inhibitory Concentration (MIC) [1]: 32 µg/mL
Minimal Inhibitory Concentration (MIC) (Bacteroides fragilis): >64 µg/mL
Minimal Inhibitory Concentration (MIC) [2]: >64 µg/mL
degradation in Simulated Gastric Fluid [3]: did not show appreciable degradation
